Assay results taken from patent publication US20050187208A1 (priority 2004, published 2005).

How the values were obtained:
[1] = biological target: T1, transfected human CB1 receptor (Homo sapiens, UniProt P21554); assay: In-vitro determination of affinity to CB1 receptor, radioligand [^3H]-CP55940; format: binding; conditions: for inhibition at 1 µM: read-out: CB1 Receptor % Inhibition 10^−6 M
T1 construct: purchased Receptor Biology, Inc
Procedure: (§1) I. In-vitro Determination of Affinity to CB1/CB2-Rezeptors
(§2) The in-vitro determination of the affinity of the inventive substituted azetidine compounds to CB1/CB2-Receptors is carried out as described in the publication of Ruth A. Ross, Heather C. Brockie et al., “Agonist-inverse agonist characterization at CB1 and CB2 cannabinoid receptors of L-759633, L759656 and AM630”, British Journal of Pharmacology, 126, 665-672, (1999). The respective parts of the descriptions are hereby incorporated by reference and form part of the present disclosure. The transfected human CB1 and CB2 receptor are obtained from Receptor Biology, Inc. The radioligand used for both receptors is [^3H]-CP55940.
(§3) The affinity of the inventive substituted azetidine compounds to CB1/CB2 receptors is determined as described above.

[2] = biological target: T2, transfected human CB2 receptor (Homo sapiens, UniProt P34972); assay: In-vitro determination of affinity to CB2 receptor, radioligand [^3H]-CP55940; format: binding; conditions: 10^−6 M
T2 construct: purchased Receptor Biology, Inc
Procedure: as §1, §2, §3

cannabinoid receptors [3] = assay: Mouse tetrad model, agonistic effect (hot plate, hypothermia, catalepsy, sedation); format: in vivo; design: key to Agonistic effect A: Hot-Plate test: % MPE = (PT−B)/(PC−B)×100; key to Agonistic effect D: Sedation: % sedation = mean score (0-3)/3×100; Agonistic effect B: Hypothermia: unit not given here; conditions: 5 mg/kg i.v., male NMRI mice; for Agonistic effect A: Hot-Plate test: 15 minutes after injection; for Agonistic effect B: Hypothermia / Agonistic effect C: Catalepsy / Agonistic effect D: Sedation: 20 minutes after injection
Source text: (§4) Substances with affinity for cannabinoid receptors are known to produce a wide range of pharmacological effects. It is also known that intravenous administration of a substance with affinity for cannabinoid receptors in mice produces analgesia, hypothermia, sedation and catalepsy. Individually, none of these effects can be considered as proof that a tested substance has affinity for cannabinoid-receptors, since all of these effects are common for various classes of centrally active agents. However, substances, which show all of these effects, i.e. substances that are active in this so-called tetrad model are considered to have affinity for the cannabinoid receptors. It has further been shown that cannabinoid receptor antagonists are higly effective in blocking the effects of a cannabinoid agonist in the mouse tetrad model.
(§5) The tetrad model is described, for example, in the publication of A. C. Howlett et al, International Union of Pharmacology XXVII. Classification of Cannabinoid Receptors, Pharmacol Rev 54, 161-202, 2002 and David R. Compton et al., “In-vivo Characterization of a Specific Cannabinoid Receptor Antagonist (SR141716A): Inhibition of Tetrahydrocannbinol-induced Responses and Apparent Agonist Activity”, J. Pharmacol. Exp. Ther. 277, 2, 586-594, 1996. The corresponding parts of the description are hereby incorporated by reference.
(§6) Male NMRI mice with a weight of 20-30 g (Harlan, Barcelona, Spain) are used in all of the following experiments.
(§7) Before testing in the behavioral procedures given below, mice are acclimatized to the experimental setting. Pre-Treatment control values are determined for analgesia hot plate latency (in seconds), rectal temperature, sedation and catalepsy.
(§8) In order to determine the agonistic activty of the substance to be tested, the mice are injected intravenously with the substance to be tested or the vehicle alone. 15 minutes after injection, latency in hot plate analgesia is measured. Rectal temperature, sedation and catalepsy are measured 20 minutes after injection.
(§9) The hot plate analgesia is determined according to the method described in Woolfe D. et al. “The evaluation of analgesic action of pethidine hydrochloride (Demerol)”, J. Pharmacol. Exp. Ther. 80, 300-307, 1944. The respective description is hereby incorporated by reference and forms part of the present disclosure.
(§10) The mice are placed on a hot plate (Harvard Analgesimeter) at 55±0.5° C. until they show a painful sensation by licking their paws or jumping and the time for these sensations to occur is recorded. This reading is considered the basal value (B). The maximum time limit the mice are allowed to remain on the hot plate in absence of any painful response is 40 seconds in order to prevent skin damage. This period is called the cut-off time (PC).
(§11) Fifteen minuts after the administration of the substance to be tested, the mice are again placed on the hot plate and the afore described procedure is repeated. This period is called the post-treatment reading (PT).
(§12) The degree of analgesia is calculated from the formula: % MPE of Analgesia=(PT−B)/(PC−B)×100 • MPE Maximum possible effect. Determination of Sedation and Ataxia
(§13) Sedation and ataxia is determined according to the method described in Desmet L. K. C. et al. “Anticonvulsive properties of.Cinarizine and Flunarizine in Rats and Mice”, Arzneim. -Forsch. (Frug Res) 25, 9, 1975. The respective description is hereby incorporated by reference and forms part of the present disclosure.
The chosen scoring system is • 0: no ataxia; • 1: doubful; • 2: obvious calmness and quiet; • 3 pronounced ataxia; prior to as well as after treatment.
The percentage of sedation is determined according to the formula: % of sedation=arithmetic mean/3×100 Hypothermia: […]

cannabinoid receptors [4] = assay: Mouse tetrad model, antagonistic effect against Win 55212-2; format: in vivo; design: unit not given here; conditions: 5 mg/kg i.v. prior to Win 55212-2 1.25 mg/kg i.v.; male NMRI mice
Source text: as §4, §5, §6, §7, §8
In order to determine the antagonistic activity the identical procedure is used as for the determination of the agonistic effects, but with the difference that the substance to be evaluated for its antagonistic activity is injectected 5 minutes before the intravenous injection of 1.25 mg/kg Win-55,212 a known cannabinoid-receptor agonist.
as §9, §10, §11, §12, §13
The chosen scoring system is • 0: no ataxia; • 1: doubful; • 2: obvious calmness and quiet; • 3 pronounced ataxia; prior to as well as after treatment. […]

T1 sequence (P21554 whole entry): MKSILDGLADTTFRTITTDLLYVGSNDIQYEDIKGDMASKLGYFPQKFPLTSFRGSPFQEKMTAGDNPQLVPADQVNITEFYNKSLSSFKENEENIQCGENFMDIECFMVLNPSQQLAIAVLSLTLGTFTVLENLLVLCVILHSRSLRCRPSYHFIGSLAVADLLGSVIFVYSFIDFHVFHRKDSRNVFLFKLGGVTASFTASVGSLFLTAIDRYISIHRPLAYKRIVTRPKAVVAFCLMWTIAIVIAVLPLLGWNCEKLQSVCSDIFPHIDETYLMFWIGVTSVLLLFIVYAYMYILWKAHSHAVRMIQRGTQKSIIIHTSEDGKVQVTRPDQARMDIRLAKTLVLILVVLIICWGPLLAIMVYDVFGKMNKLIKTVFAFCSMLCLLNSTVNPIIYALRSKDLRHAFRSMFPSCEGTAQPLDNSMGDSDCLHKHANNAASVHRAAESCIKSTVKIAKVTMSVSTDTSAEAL
T2 sequence (P34972 whole entry): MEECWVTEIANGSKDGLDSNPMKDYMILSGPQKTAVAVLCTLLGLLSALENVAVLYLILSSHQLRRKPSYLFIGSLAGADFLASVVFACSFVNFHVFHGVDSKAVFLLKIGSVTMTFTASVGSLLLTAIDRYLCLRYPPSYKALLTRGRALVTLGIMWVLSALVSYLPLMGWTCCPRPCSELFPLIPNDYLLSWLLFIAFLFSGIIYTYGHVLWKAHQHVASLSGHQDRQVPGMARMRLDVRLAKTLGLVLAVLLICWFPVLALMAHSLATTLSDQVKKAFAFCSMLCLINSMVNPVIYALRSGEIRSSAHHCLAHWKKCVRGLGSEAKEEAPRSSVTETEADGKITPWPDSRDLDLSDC

C[C@H]1[C@H](NS(=O)(=O)c2ccc(F)cc2)CN1C(c1ccc(Cl)cc1)c1ccc(Cl)cc1 [Example 5, (2S, 3R)-N-{1-[Bis-(4-chlorophenyl)methyl]-2-methylazetidin-3-yl}-4-fluoro-benzene sulfonamide]
Ki ([1]; radioligand [^3H]-CP55940): 264 nM
inhibition at 1 µM [1]: 59%
inhibition at 1 µM [2]: 4.6%
melting point: 154 to 157 °C
Agonistic effect A: Hot-Plate test (cannabinoid receptors [3]): 2
Agonistic effect B: Hypothermia (cannabinoid receptors [3]): 0
Agonistic effect C: Catalepsy (cannabinoid receptors [3]): 0
Agonistic effect D: Sedation (cannabinoid receptors [3]): 0
Antagonistic Effect A: Hot-Plate test (cannabinoid receptors [4]): 77
Antagonistic Effect B: Hypothermia (cannabinoid receptors [4]): 100
Antagonistic Effect C: Catalepsy (cannabinoid receptors [4]): 71
Antagonistic Effect D: Sedation (cannabinoid receptors [4]): 57

C[C@H]1[C@H](NS(=O)(=O)c2cccs2)CN1C(c1ccc(Cl)cc1)c1ccc(Cl)cc1 [Example 6, Thiophene-2-sulfonic acid {(2S,3R)-1-[bis-(4-chloro-phenyl)-methyl]-2-methyl-azetidin-3-yl}-amide]
inhibition at 1 µM [1]: 66%
inhibition at 1 µM [2]: 13.5%
melting point: 72 to 76 °C
Agonistic effect A: Hot-Plate test (cannabinoid receptors [3]): 0
Agonistic effect B: Hypothermia (cannabinoid receptors [3]): 0
Agonistic effect C: Catalepsy (cannabinoid receptors [3]): 0
Agonistic effect D: Sedation (cannabinoid receptors [3]): 0
Antagonistic Effect A: Hot-Plate test (cannabinoid receptors [4]): 32
Antagonistic Effect B: Hypothermia (cannabinoid receptors [4]): 32
Antagonistic Effect C: Catalepsy (cannabinoid receptors [4]): 51
Antagonistic Effect D: Sedation (cannabinoid receptors [4]): 46
